We go through two molecules from paper PMC3185571 (Viruses, 2010).

Like-named read-outs stand apart in the source and are kept apart here.

The target in experiment [1] is neuraminidase of A/Thailand/1035/2008 (H1N1), H275Y and D151D/G (Influenza A virus, UniProt C7FPR4). Format: biochemical.
In experiment [2] the target is neuraminidase of A/Washington/10/2008, A (H1N1) Seasonal, WT (Influenza A virus, UniProt G3LYQ1). Format: biochemical.
The target in experiment [3] is neuraminidase of A/Florida/21/2008, A (H1N1) Seasonal, H275Y (Influenza A virus, UniProt G3LYQ1, H275Y). Format: biochemical.
The target in experiment [4] is neuraminidase of B/Memphis/20/1996, B Seasonal, R152K (Influenza B virus, UniProt R4KWM8, R150K). Format: biochemical.
The target of experiment [5] is neuraminidase of A/Texas/48/2009, H1N1 Pandemic, H275Y (Influenza A virus, UniProt C6KP13, H275Y). Format: biochemical, 2009 pandemic H1N1 influenza virus.
Experiment [6] concerns the target neuraminidase of seasonal influenza A(H1N1) H275Y variant virus isolates (Influenza A virus, UniProt A8C8J7, H275Y). In kind it is biochemical.
In experiment [7] the target is neuraminidase of A/Washington/01/2007, A (H3N2) Seasonal, WT (Influenza A virus, UniProt A7UPN3). The experiment can be described thus: biochemical.
Experiment [8] addresses neuraminidase of A/Ontario/RV0442/2009, A(H3N2), D151V and V50M (Influenza A virus, UniProt X2GPU4, D151V/V50M). Format: biochemical.
Experiment [9] has as its target neuraminidase of A/Texas/12/2007, A (H3N2) Seasonal, E119V (Influenza A virus, UniProt D1FVK3, I119V). Kind of experiment: biochemical.
The target of experiment [10] is neuraminidase of A/California/07/2009, H1N1 Pandemic, WT (Influenza A virus (A/California/07/2009(H1N1)), UniProt C7FH46). In kind it is biochemical, 2009 pandemic H1N1 influenza virus.
In experiment [11] the target is neuraminidase of B/Memphis/20/1996, B Seasonal, WT (Influenza B virus, UniProt C7FPS7). Format: biochemical.
In experiment [12] the target is neuraminidase of 2009 pandemic H1N1 H275Y variant virus isolates (Influenza A virus, UniProt C3W5S3, H275Y). Format: biochemical, 2009 pandemic H1N1 influenza virus.
Experiment [13] has as its target neuraminidase of B/Texas/38/2008, D197E (Influenza B virus, UniProt C7F996). The experiment can be described thus: biochemical.

Usually IC50 stands for the midpoint of a concentration-inhibition curve. As to `CCC(CC)[C@H](NC(C)=O)[C@@H]1[C@H](O)[C@@H](C(=O)O)C[C@H]1N=C(N)N` [Peramivir, peramivir], the IC50 in [1] (read-out: IC50) was determined as 295 nM; in [3] (read-out: Mean IC50 ± SD), 11.3 nM; in [4] (read-out: Mean IC50 ± SD), 52.8 nM; in experiment [5] (read-out: Mean IC50 ± SD), 10.1 nM; in [6] (read-out: IC50 Mean (±SD)), 30.6 ± 66.1 nM; in experiment [6] (read-out: IC50 Median) it was 12.9 nM. In addition, the IC50 in experiment [6] (read-out: IC50 Range) was 2.46 to 511 nM; in experiment [8], 7.48 nM; in [9] (read-out: Mean IC50 ± SD) it was 0.14 nM; in experiment [12] (read-out: IC50 Mean (±SD)), 10.4 ± 1.37 nM; in [12] (read-out: IC50 Median), 10.3 nM; in [12] (read-out: IC50 Range), 8.1 to 12.9 nM. For the same molecule, the “Fold Difference (IC50 of mutant/IC50 of wildtype virus)” value in experiment [2] is recorded as 0.09±0.02 (1); in experiment [3], 11.27±1.36 (134); in experiment [4] it was 52.80±3.51 (176); in [5], 10.06±0.01 (164); in experiment [7], 0.12±0.02 (1); in experiment [9], 0.14±0.02 (1). For the same molecule, the “Fold Difference (IC50 of mutant/IC50 of wildtype virus)” value in [10] is recorded as 0.06±0.02 (1); in [11], 0.31±0.06 (1). Besides, the “fold, mean IC50 among H275Y variants over H275 wildtype viruses” value in experiment [6] is listed as roughly 300 fold.

Take `CC(=O)N[C@H]1[C@H]([C@H](O)[C@H](O)CO)OC(C(=O)O)=C[C@@H]1N=C(N)N` [Zanamivir, zanamivir]: the IC50 worked out at 20.6 nM in experiment [1], 0.51 nM in [9] and 10.3 nM in experiment [13].
